Test results taken from the OligoGym collection.
After the bases stand the sugars from the 5' end (letter, count) and the backbone: PS all phosphorothioate, else s phosphorothioate and o phosphodiester by linkage. Methylation of C is not given here. l = locked nucleic acid (LNA); d = 2'-deoxy (DNA)

Target: SNHG14
Conditions: ASO
[1] = Mouse Primary Neuronal Cell, 0.005 µM

| Sequence | target mRNA inhibition (Human Neuronal Cell, 0.2 µM) [%] | target mRNA inhibition (Human Neuronal Cell, 1 µM) [%] | target mRNA inhibition (Human Neuronal Cell, 7.5 µM) [%] | further results |
| --- | --- | --- | --- | --- |
| CACTTAGAATATCCCT (sugars l2 d10 l4, PS) | 43 | 35 |  |  |
| CAGATAACTCTAAACC (sugars l4 d10 l2, PS) | 22 | 16 |  |  |
| CAGCTTTTAACCAGAGTG (sugars l3 d13 l2, PS) |  |  | 76 |  |
| CAGGCAGATAACCTCCAA (sugars l3 d12 l3, PS) | 12 | 20 |  | target mRNA inhibition (Human Neuronal Cell, 5 µM): 18% |
| CATTTACATTATTATTTAAC (sugars l2 d14 l4, PS) | 1 | -3 |  |  |
| CCAAGATAATCATCAT (sugars l3 d10 l3, PS) | 41 | 42 |  |  |
| CCATTCTATCTGCCAAA (sugars l2 d11 l4, PS) | 54 | 69 |  |  |
| CCATTTATTTCCATTTATT (sugars lddlllddddddldddlll, PS) |  |  | 54 |  |
| CCATTTATTTCCATTTATT (sugars ldldlddddddddldldll, PS) |  |  | 55 |  |
| CCATTTATTTCCATTTATT (sugars llddlddddddddldddll, PS) |  |  | 61 |  |
| CCATTTATTTCCATTTATTT (sugars ldlddlddddddddlddlll, PS) |  |  | 59 |  |
| CCCACCAAAGGATATATT (sugars l3 d12 l3, PS) | -28 | 33 |  | target mRNA inhibition (Human Neuronal Cell, 5 µM): 16% |
| CCTAAAGATCCCATCAC (sugars l2 d12 l3, PS) | 34 | 51 |  |  |
| CCTACATCTCATACTT (sugars l2 d10 l4, PS) |  |  |  | target mRNA inhibition [1]: 96.5% |
| CCTACATCTCATACTTGC (sugars l2 d12 l4, PS) |  |  |  | target mRNA inhibition [1]: 97.3% |
| CCTCAACTTCACCAAT (sugars l2 d10 l4, PS) | 37 | 49 |  |  |
| CTAAATAGATTCCACT (sugars l2 d10 l4, PS) | 26 | 52 |  |  |
| CTAAGCTCCATATTTA (sugars l4 d10 l2, PS) | 21 | 42 |  |  |
| CTACACATCTTGTATAC (sugars l3 d11 l3, PS) | 40 | 52 |  |  |
| CTATTCCAGTTTAAAT (sugars l4 d10 l2, PS) | 33 | 44 |  |  |
| CTCAGACATCTCAATA (sugars l4 d10 l2, PS) | 45 | 43 |  |  |

| Sequence | target mRNA inhibition (Human Neuronal Cell, 0.2 µM) [%] | target mRNA inhibition (Human Neuronal Cell, 1 µM) [%] | target mRNA inhibition (Human Neuronal Cell, 7.5 µM) [%] | further results |
| --- | --- | --- | --- | --- |
| CTGTATACACCATCCCA (sugars l1 d2 l2 d10 l2, PS) |  |  | 61 |  |
| CTGTATACACCATCCCA (sugars l1 d12 l1 d1 l2, PS) |  |  | 58 |  |
| CTGTATACACCATCCCA (sugars l1 d14 l2, PS) |  |  | 49 |  |
| CTGTATACACCATCCCA (sugars l2 d2 l1 d10 l2, PS) |  |  | 60 |  |
| CTGTATACACCATCCCA (sugars lddddddddddldldll, PS) |  |  | 49 |  |
| CTGTATACACCATCCCA (sugars ldddlddddddldddll, PS) |  |  | 29 |  |
| CTGTATACACCATCCCA (sugars lddldddddddddldll, PS) |  |  | 49 |  |
| CTGTATACACCATCCCA (sugars lddldddddddldddll, PS) |  |  | 55 |  |
| CTGTATACACCATCCCA (sugars ldlddddddddldddll, PS) |  |  | 52 |  |
| CTGTTTATACCCTTTCCA (sugars l1 d15 l2, PS) |  |  | 47 |  |
| CTGTTTATACCCTTTCCA (sugars ldlddddddddddlddll, PS) |  |  | 55 |  |
| CTGTTTATACCCTTTCCA (sugars ldldldddddddddddll, PS) |  |  | 56 |  |
| CTTACCAATAGTTACCT (sugars l3 d11 l3, PS) | 49 | 54 |  |  |
| CTTCCCTTTGATAACA (sugars l4 d10 l2, PS) | 12 | 32 |  |  |
| CTTCTTGTTTATCCCAA (sugars l2 d11 l4, PS) | 57 | 68 |  |  |
| CTTGCATTTCTAATTAC (sugars l3 d11 l3, PS) | 38 | 35 |  |  |
| CTTGTCAAATCATTTCT (sugars l4 d11 l2, PS) | 47 | 41 |  |  |
| CTTTCCAATGAATCTA (sugars l2 d10 l4, PS) | 39 | 55 |  |  |
| CTTTGACATTCCATCTC (sugars l2 d11 l4, PS) | 52 | 59 |  |  |
| CTTTTAACCAGAGTGGC (sugars l4 d11 l2, PS) |  |  | 62 |  |
| CTTTTAACCAGAGTGGCA (sugars l1 d14 l3, PS) |  |  | 61 |  |
